A compilation of properties of binary mixtures (doi:10.1007/s11426-012-4655-1)

Assay: xn = mol fraction of the nth substance listed
Settings: 101 kPa

In the case of `CCCCCCCCn1cc[n+](C)c1.[Cl-]` + CCCCCCCCn1cc[n+](C)c1.F[B-](F)(F)F, the electrical conductivity (303 K, x1 = 1) is reported as 0.0021 S/m, the electrical conductivity (308 K, x1 = 1) is reported as 0.0035 S/m and the electrical conductivity (318 K, x1 = 1) is reported as 0.0086 S/m. It also gave an electrical conductivity (323 K, x1 = 1) of 0.0129 S/m, a viscosity (323.15 K, x1 = 1) of 2043 mPa·s and an electrical conductivity (328 K, x1 = 1) of 0.0187 S/m. For the same compound, the electrical conductivity (333 K, x1 = 1) was 0.0266 S/m and the viscosity (333.15 K, x1 = 1) was 930 mPa·s.
With `CCCCCCCCn1cc[n+](C)c1.F[B-](F)(F)F` + CCCCCCCCn1cc[n+](C)c1.[Cl-] the electrical conductivity (303 K, x2 = 0.2) was 0.0443 S/m, the electrical conductivity (303 K, x2 = 0.4) was 0.0225 S/m and the electrical conductivity (303 K, x2 = 0.6) was 0.011 S/m. For the same compound, the viscosity (303.15 K, x2 = 0.2) was 530 mPa·s, the viscosity (303.15 K, x2 = 0.6) was 2399 mPa·s and the electrical conductivity (308 K, x2 = 0) was 0.107 S/m. For the same compound, the electrical conductivity (308 K, x2 = 0.2) was 0.0605 S/m, the electrical conductivity (308 K, x2 = 0.4) was 0.0317 S/m and the electrical conductivity (308 K, x2 = 0.6) was 0.0163 S/m. It also gave an electrical conductivity (308 K, x2 = 0.8) of 0.0085 S/m, a viscosity (308.15 K, x2 = 0) of 194 mPa·s and a viscosity (308.15 K, x2 = 0.2) of 380 mPa·s. For the same compound, the viscosity (308.15 K, x2 = 0.4) was 760 mPa·s, the viscosity (308.15 K, x2 = 0.6) was 1565 mPa·s and the electrical conductivity (313 K, x2 = 0) was 0.137 S/m. The electrical conductivity (313 K, x2 = 0.2) was 0.0801 S/m, the electrical conductivity (313 K, x2 = 0.4) was 0.0438 S/m and the electrical conductivity (313 K, x2 = 0.8) was 0.0128 S/m. It also gave a viscosity (313.15 K, x2 = 0) of 149 mPa·s, a viscosity (313.15 K, x2 = 0.2) of 279 mPa·s and a viscosity (313.15 K, x2 = 0.4) of 530 mPa·s. The viscosity (313.15 K, x2 = 0.6) was 1065 mPa·s, the viscosity (313.15 K, x2 = 0.8) was 2245 mPa·s and the electrical conductivity (318 K, x2 = 0.4) was 0.0595 S/m. The electrical conductivity (318 K, x2 = 0.8) was 0.0186 S/m, the viscosity (318.15 K, x2 = 0) was 116 mPa·s and the viscosity (318.15 K, x2 = 0.2) was 211 mPa·s. The viscosity (318.15 K, x2 = 0.4) was 390 mPa·s, the viscosity (318.15 K, x2 = 0.6) was 740 mPa·s and the electrical conductivity (323 K, x2 = 0) was 0.215 S/m. For the same compound, the electrical conductivity (323 K, x2 = 0.2) was 0.136 S/m, the electrical conductivity (323 K, x2 = 0.4) was 0.0791 S/m and the electrical conductivity (323 K, x2 = 0.8) was 0.0264 S/m. It also gave a viscosity (323.15 K, x2 = 0) of 92 mPa·s, a viscosity (323.15 K, x2 = 0.2) of 162 mPa·s and a viscosity (323.15 K, x2 = 0.4) of 287 mPa·s. It also gave a viscosity (323.15 K, x2 = 0.6) of 520 mPa·s, a viscosity (323.15 K, x2 = 0.8) of 1015 mPa·s and an electrical conductivity (328 K, x2 = 0) of 0.263 S/m. For the same compound, the electrical conductivity (328 K, x2 = 0.4) was 0.102 S/m, the electrical conductivity (328 K, x2 = 0.6) was 0.0607 S/m and the electrical conductivity (328 K, x2 = 0.8) was 0.0366 S/m. For the same compound, the viscosity (328.15 K, x2 = 0) was 74 mPa·s, the viscosity (328.15 K, x2 = 0.2) was 127 mPa·s and the viscosity (328.15 K, x2 = 0.4) was 216 mPa·s. The viscosity (328.15 K, x2 = 0.6) was 370 mPa·s, the viscosity (328.15 K, x2 = 0.8) was 710 mPa·s and the electrical conductivity (333 K, x2 = 0.2) was 0.211 S/m. The electrical conductivity (333 K, x2 = 0.4) was 0.13 S/m, the electrical conductivity (333 K, x2 = 0.6) was 0.0797 S/m and the electrical conductivity (333 K, x2 = 0.8) was 0.0514 S/m. For the same compound, the viscosity (333.15 K, x2 = 0.2) was 100 mPa·s, the viscosity (333.15 K, x2 = 0.4) was 166 mPa·s and the viscosity (333.15 K, x2 = 0.6) was 279 mPa·s. For the same compound, the viscosity (333.15 K, x2 = 0.8) was 500 mPa·s.
For `CCCCCC[n+]1ccn(C)c1.F[P-](F)(F)(F)(F)F` + CCCCCC[n+]1ccn(C)c1.[Cl-], the electrical conductivity (303 K, x2 = 0) was 0.0747 S/m, the electrical conductivity (303 K, x2 = 0.2) was 0.0399 S/m and the electrical conductivity (303 K, x2 = 0.4) was 0.0205 S/m. The electrical conductivity (303 K, x2 = 0.6) was 0.0104 S/m, the electrical conductivity (303 K, x2 = 0.8) was 0.0054 S/m and the viscosity (303.15 K, x2 = 0) was 500 mPa·s. The electrical conductivity (308 K, x2 = 0) was 0.0993 S/m, the electrical conductivity (308 K, x2 = 0.2) was 0.0556 S/m and the electrical conductivity (308 K, x2 = 0.6) was 0.0158 S/m. It also gave an electrical conductivity (308 K, x2 = 0.8) of 0.0086 S/m, a viscosity (308.15 K, x2 = 0.2) of 680 mPa·s and a viscosity (308.15 K, x2 = 0.4) of 1238 mPa·s. The electrical conductivity (313 K, x2 = 0.2) was 0.0751 S/m, the electrical conductivity (313 K, x2 = 0.6) was 0.0235 S/m and the electrical conductivity (313 K, x2 = 0.8) was 0.0133 S/m. The viscosity (313.15 K, x2 = 0) was 273 mPa·s, the viscosity (313.15 K, x2 = 0.2) was 490 mPa·s and the viscosity (313.15 K, x2 = 0.4) was 850 mPa·s. It also gave a viscosity (313.15 K, x2 = 0.6) of 1501 mPa·s, an electrical conductivity (318 K, x2 = 0) of 0.166 S/m and an electrical conductivity (318 K, x2 = 0.2) of 0.1 S/m. It also gave an electrical conductivity (318 K, x2 = 0.4) of 0.0584 S/m, an electrical conductivity (318 K, x2 = 0.8) of 0.0199 S/m and a viscosity (318.15 K, x2 = 0) of 208 mPa·s. The viscosity (318.15 K, x2 = 0.2) was 360 mPa·s, the viscosity (318.15 K, x2 = 0.6) was 1014 mPa·s and the electrical conductivity (323 K, x2 = 0) was 0.21 S/m. The electrical conductivity (323 K, x2 = 0.2) was 0.131 S/m, the electrical conductivity (323 K, x2 = 0.4) was 0.0793 S/m and the electrical conductivity (323 K, x2 = 0.6) was 0.0476 S/m. The electrical conductivity (323 K, x2 = 0.8) was 0.0291 S/m, the viscosity (323.15 K, x2 = 0) was 162 mPa·s and the viscosity (323.15 K, x2 = 0.2) was 268 mPa·s. The viscosity (323.15 K, x2 = 0.4) was 430 mPa·s, the viscosity (323.15 K, x2 = 0.8) was 1154 mPa·s and the electrical conductivity (328 K, x2 = 0.2) was 0.166 S/m. It also gave an electrical conductivity (328 K, x2 = 0.4) of 0.105 S/m, an electrical conductivity (328 K, x2 = 0.6) of 0.0648 S/m and a viscosity (328.15 K, x2 = 0) of 128 mPa·s. The viscosity (328.15 K, x2 = 0.4) was 322 mPa·s, the viscosity (328.15 K, x2 = 0.6) was 500 mPa·s and the viscosity (328.15 K, x2 = 0.8) was 790 mPa·s. It also gave an electrical conductivity (333 K, x2 = 0) of 0.319 S/m, an electrical conductivity (333 K, x2 = 0.2) of 0.21 S/m and an electrical conductivity (333 K, x2 = 0.4) of 0.137 S/m. It also gave an electrical conductivity (333 K, x2 = 0.6) of 0.0875 S/m, an electrical conductivity (333 K, x2 = 0.8) of 0.0582 S/m and a viscosity (333.15 K, x2 = 0) of 102 mPa·s. It also gave a viscosity (333.15 K, x2 = 0.2) of 159 mPa·s, a viscosity (333.15 K, x2 = 0.4) of 242 mPa·s and a viscosity (333.15 K, x2 = 0.6) of 370 mPa·s. The viscosity (333.15 K, x2 = 0.8) was 550 mPa·s.
